Where “and” joins values, the source holds several entries; their conditions need not be identical. Identical values can stand only once. Toxic doses and inconclusive results are not listed.
Test system: P388 leukemia ip, CD2F1 mice, survival T/C
Assay: NCI In Vivo Anticancer Drug Screen. Data for tumor model P388 Leukemia (intraperitoneal) in CD2F1 (CDF1) mice
Settings: endpoint: median survival time, higher = longer survival
Procedure, shortened: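 Mice carrying the transplanted tumor received test compound or vehicle. Survival was recorded in each group, and the value is the treated-group measurement divided by that of the vehicle-treated control group.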

[1] = dose: 50.0 mg/kg/injection, schedule: Q01DX005 (ip), vehicle: Klucel (hydroxypropylcellulose) (HPC)
[2] = dose: 100.0 mg/kg/injection, schedule: Q01DX005 (ip), vehicle: Klucel (hydroxypropylcellulose) (HPC)
[3] = dose: 200.0 mg/kg/injection, schedule: Q01DX005 (ip), vehicle: Klucel (hydroxypropylcellulose) (HPC)
[4] = dose: 50.0 mg/kg/injection, schedule: Q01DX009 (ip), vehicle: Klucel (hydroxypropylcellulose) (HPC)
[5] = dose: 100.0 mg/kg/injection, schedule: Q01DX009 (ip), vehicle: Klucel (hydroxypropylcellulose) (HPC)
[6] = dose: 200.0 mg/kg/injection, schedule: Q01DX009 (ip), vehicle: Klucel (hydroxypropylcellulose) (HPC)
[7] = dose: 12.5 mg/kg/injection, schedule: Q01DX005 (ip), vehicle: saline with Tween-80
[8] = dose: 25.0 mg/kg/injection, schedule: Q01DX005 (ip), vehicle: saline with Tween-80
[9] = dose: 50.0 mg/kg/injection, schedule: Q01DX005 (ip), vehicle: saline with Tween-80
[10] = dose: 50.0 mg/kg/injection, schedule: Q01DX009 (ip), vehicle: saline
[11] = dose: 6.25 mg/kg/injection, schedule: Q01DX005 (ip), vehicle: Klucel (hydroxypropylcellulose) (HPC)
[12] = dose: 12.5 mg/kg/injection, schedule: Q01DX005 (ip), vehicle: Klucel (hydroxypropylcellulose) (HPC)
[13] = dose: 25.0 mg/kg/injection, schedule: Q01DX005 (ip), vehicle: Klucel (hydroxypropylcellulose) (HPC)

In the case of `CCc1nc(N)nc(N)c1-c1ccc(NCCc2ccccc2)c([N+](=O)[O-])c1`, the T/C [1] is reported as 101 % of control, the T/C [2] is reported as 113 % of control and 124 % of control and the T/C [3] is reported as 162 % of control. The T/C (dose: 400.0 mg/kg/injection, schedule: Q01DX005 (ip), vehicle: Klucel (hydroxypropylcellulose) (HPC)) was 98 % of control.

`O=S1(=O)c2ccccc2N(c2ccccc2)c2nnc(-c3ccccc3)n21` was tested, and the T/C (dose: 100.0 mg/kg/injection, schedule: Q04DX002 (ip), vehicle: saline with Tween-80) was 93 % of control, the T/C (dose: 200.0 mg/kg/injection, schedule: Q04DX002 (ip), vehicle: saline with Tween-80) was 92 % of control and the T/C (dose: 400.0 mg/kg/injection, schedule: Q04DX002 (ip), vehicle: saline with Tween-80) was 92 % of control.

`COc1cc(-c2n[nH]c(=O)o2)cc(OC)c1OC` was tested, and the T/C [4] was 105 % of control, the T/C [5] was 100 % of control and the T/C [6] was 105 % of control.

`O=C(O)c1ccccc1C(=O)c1ccccn1` was tested, and the T/C [4] was 99 % of control, the T/C [5] was 97 % of control and the T/C [6] was 97 % of control.

With `Nc1nc(=O)n(C2CCCCO2)cc1Br` (stereo not given) the T/C [1] was 104 % of control, the T/C [2] was 109 % of control and the T/C [3] was 97 % of control.

For `COC(=O)C1(OC(C)=O)C(=O)NC2=C1C(=O)c1ccccc1C2=O` (stereo not given), the T/C [7] was 102 % of control, the T/C [8] was 104 % of control and the T/C [9] was 110 % of control and 113 % of control.

With `CCCCCCc1c(C#N)c(S)[nH]c(=S)c1C#N` the T/C (dose: 12.5 mg/kg/injection, schedule: Q01DX009 (ip), vehicle: saline) was 95 % of control, the T/C (dose: 25.0 mg/kg/injection, schedule: Q01DX009 (ip), vehicle: saline) was 106 % of control and the T/C [10] was 106 % of control and 96 % of control.

`Cc1ccc(NCCN2CCN(CCNc3ccc(C)c4sc5ccccc5c(=O)c34)CC2)c2c(=O)c3ccccc3sc12` was tested, and the T/C (dose: 6.25 mg/kg/injection, schedule: Q01DX005 (ip), vehicle: saline with Tween-80) was 106 % of control, the T/C [7] was 98 % of control and the T/C [8] was 105 % of control. For the same compound, the T/C [9] was 97 % of control.

With `Cc1ccc(Cl)cc1S(=O)(=O)Cl` the T/C (dose: 12.5 mg/kg/injection, schedule: Q01DX009 (ip), vehicle: distilled water + Tween-80) was 100 % of control and the T/C (dose: 25.0 mg/kg/injection, schedule: Q01DX009 (ip), vehicle: distilled water + Tween-80) was 110 % of control.

`Cc1cccc2c1NC(O)c1cccn1C2=O` (stereo not given) was tested, and the T/C (dose: 0.1 mg/kg/injection, schedule: Q01DX005 (ip), vehicle: water) was 98 % of control, the T/C (dose: 0.2 mg/kg/injection, schedule: Q01DX005 (ip), vehicle: water) was 93 % of control and the T/C (dose: 0.4 mg/kg/injection, schedule: Q01DX005 (ip), vehicle: water) was 93 % of control. For the same compound, the T/C (dose: 0.8 mg/kg/injection, schedule: Q01DX005 (ip), vehicle: water) was 98 % of control, the T/C (dose: 1.6 mg/kg/injection, schedule: Q01DX005 (ip), vehicle: water) was 93 % of control and the T/C (dose: 5.0 mg/kg/injection, schedule: Q01DX005 (ip), vehicle: distilled water + Tween-80) was 103 % of control. For the same compound, the T/C (dose: 10.0 mg/kg/injection, schedule: Q01DX005 (ip), vehicle: distilled water + Tween-80) was 94 % of control, the T/C (dose: 20.0 mg/kg/injection, schedule: Q01DX005 (ip), vehicle: distilled water + Tween-80) was 98 % of control and the T/C (dose: 40.0 mg/kg/injection, schedule: Q01DX005 (ip), vehicle: distilled water + Tween-80) was 95 % of control. For the same compound, the T/C (dose: 80.0 mg/kg/injection, schedule: Q01DX005 (ip), vehicle: distilled water + Tween-80) was 94 % of control.

In the case of `O=S1(=O)C=C(c2ccccc2)S(=O)(=O)C=C1c1ccccc1`, the T/C (dose: 100.0 mg/kg/injection, schedule: Q04DX003 (ip), vehicle: saline with Tween-80) is reported as 102 % of control and the T/C (dose: 200.0 mg/kg/injection, schedule: Q04DX003 (ip), vehicle: saline with Tween-80) is reported as 96 % of control.

`CC(C)=CCCC(C)(OC1OC(COC2OC(CO)C(O)C(O)C2O)C(O)C(O)C1O)C1CCC2(C)C1C(O)CC1C3(C)CCC(OC4OC(CO)C(O)C(O)C4OC4OC(CO)C(O)C(O)C4O)C(C)(C)C3CCC12C` (stereo not given) was tested, and the T/C (dose: 2.0 mg/kg/injection, schedule: Q01DX009 (ip), vehicle: Klucel (hydroxypropylcellulose) (HPC)) was 102 % of control, the T/C (dose: 4.0 mg/kg/injection, schedule: Q01DX009 (ip), vehicle: Klucel (hydroxypropylcellulose) (HPC)) was 95 % of control and the T/C (dose: 8.0 mg/kg/injection, schedule: Q01DX009 (ip), vehicle: Klucel (hydroxypropylcellulose) (HPC)) was 98 % of control. The T/C (dose: 16.0 mg/kg/injection, schedule: Q01DX009 (ip), vehicle: Klucel (hydroxypropylcellulose) (HPC)) was 93 % of control and the T/C (dose: 32.0 mg/kg/injection, schedule: Q01DX009 (ip), vehicle: Klucel (hydroxypropylcellulose) (HPC)) was 88 % of control.

For `CCCC(=O)O.CCCC(=O)O.CCCC(=O)O.CCCC(=O)O.[Rh].[Rh]`, the T/C (dose: 0.12 mg/kg/injection, schedule: Q01DX009 (ip), vehicle: saline + alcohol) was 116 % of control, the T/C (dose: 0.25 mg/kg/injection, schedule: Q01DX009 (ip), vehicle: saline + alcohol) was 106 % of control and 122 % of control and the T/C (dose: 15.63 micrograms/kg/injection, schedule: Q08HX018 (ip), vehicle: saline + alcohol) was 118 % of control. For the same compound, the T/C (dose: 31.25 micrograms/kg/injection, schedule: Q01DX009 (ip), vehicle: saline + alcohol) was 107 % of control, the T/C (dose: 31.25 micrograms/kg/injection, schedule: Q08HX018 (ip), vehicle: saline + alcohol) was 118 % of control and the T/C (dose: 62.5 micrograms/kg/injection, schedule: Q08HX018 (ip), vehicle: saline + alcohol) was 101 % of control. The T/C (dose: 125.0 micrograms/kg/injection, schedule: Q01DX009 (ip), vehicle: saline + alcohol) was 114 % of control, the T/C (dose: 125.0 micrograms/kg/injection, schedule: Q08HX018 (ip), vehicle: saline + alcohol) was 113 % of control and the T/C (dose: 250.0 micrograms/kg/injection, schedule: Q01DX009 (ip), vehicle: saline + alcohol) was 115 % of control. The T/C (dose: 250.0 micrograms/kg/injection, schedule: Q08HX018 (ip), vehicle: saline + alcohol) was 114 % of control and the T/C (dose: 500.0 micrograms/kg/injection, schedule: Q01DX009 (ip), vehicle: saline + alcohol) was 122 % of control.

With `NC(=O)/C(N=Nc1ccccc1S(=O)(=O)O)=N/Nc1ccccc1S(=O)(=O)O` the T/C [1] was 100 % of control, the T/C [2] was 101 % of control and 92 % of control and the T/C [3] was 101 % of control and 94 % of control.

In the case of `CC(=O)OC(OC(C)=O)C(CSC#N)SC#N` (stereo not given), the T/C [11] is reported as 99 % of control, the T/C [12] is reported as 99 % of control and the T/C [13] is reported as 99 % of control. For the same compound, the T/C [1] was 102 % of control, the T/C [2] was 96 % of control and the T/C [3] was 113 % of control.

In the case of `COc1cccc2c1C(=O)c1c(O)c3c(c(O)c1C2=O)C[C@@](O)(/C(CO)=N/NS(=O)(=O)c1ccc(C)cc1)C[C@@H]3OC1CC(N)C(O)C(C)O1` (stereo not given in full), the T/C (dose: 0.2 mg/kg/injection, schedule: Q01DX009 (ip), vehicle: water) is reported as 105 % of control, the T/C (dose: 0.39 mg/kg/injection, schedule: Q01DX009 (ip), vehicle: water) is reported as 112 % of control and the T/C (dose: 0.78 mg/kg/injection, schedule: Q01DX009 (ip), vehicle: water) is reported as 94 % of control. For the same compound, the T/C (dose: 1.56 mg/kg/injection, schedule: Q01DX009 (ip), vehicle: water) was 116 % of control and 118 % of control.

For `c1ccc(CCNCCN2CCNCC2)cc1`, the T/C (dose: 60.0 mg/kg/injection, schedule: Q01DX005 (ip), vehicle: saline) was 108 % of control and the T/C (dose: 120.0 mg/kg/injection, schedule: Q01DX005 (ip), vehicle: saline) was 99 % of control.

With `O=C(O)C1[S][Sb]([CH](C(=O)O)[CH](C(=O)O)[Sb]2[S]C(C(=O)O)C(C(=O)O)[S]2)[S]C1C(=O)O` (stereo not given) the T/C [10] was 100 % of control, the T/C (dose: 100.0 mg/kg/injection, schedule: Q01DX009 (ip), vehicle: saline) was 98 % of control and the T/C (dose: 200.0 mg/kg/injection, schedule: Q01DX009 (ip), vehicle: saline) was 108 % of control.

With `CC(=O)SCC[n+]1cc2ccccc2c2ccccc21` the T/C (dose: 3.12 mg/kg/injection, schedule: Q01DX005 (ip), vehicle: Klucel (hydroxypropylcellulose) (HPC)) was 95 % of control, the T/C [11] was 99 % of control and the T/C [12] was 105 % of control and 108 % of control. For the same compound, the T/C [13] was 100 % of control and the T/C [1] was 115 % of control and 118 % of control.

`Nc1cc2c(cc1Br)-c1c(C(=O)O)cccc1C2O` (stereo not given) was tested, and the T/C (dose: 50.0 mg/kg/injection, schedule: Q01DX005 (ip), vehicle: sodium bicarbonate) was 113 % of control, the T/C (dose: 60.0 mg/kg/injection, schedule: Q01DX005 (ip), vehicle: saline with Tween-80) was 100 % of control and 101 % of control and the T/C (dose: 100.0 mg/kg/injection, schedule: Q01DX005 (ip), vehicle: sodium bicarbonate) was 123 % of control. The T/C (dose: 120.0 mg/kg/injection, schedule: Q01DX005 (ip), vehicle: saline with Tween-80) was 104 % of control, the T/C (dose: 240.0 mg/kg/injection, schedule: Q01DX005 (ip), vehicle: saline with Tween-80) was 123 % of control and the T/C (dose: 480.0 mg/kg/injection, schedule: Q01DX005 (ip), vehicle: saline with Tween-80) was 154 % of control.

From PubChem BioAssay AID330 (DTP/NCI, 2004)
